One may read the IC50 as the midpoint of a concentration-inhibition curve.

The results in this text go back to patent US20230303570A1, “KINASE INHIBITORS AND USES THEREOF” (ABM Therapeutics Corporation, priority 2020, published 2023).

Read-outs that look alike come from different tables or passages of the source.

The target of one assay is T1, SRC (Homo sapiens, UniProt P12931).
T1 construct: purchased Carna Biosciences
The assay is described as follows: In vitro kinase assay, SRC (Caliper EZ Reader conversion). In kind it is biochemical. As for the experimental part: (§1) The effect of the compounds on the activity of SRC and PAK1 kinase were assessed. SRC and PAK1 kinase enzymes were obtained from Carna Biosciences.
Test compounds were dissolved in 100% DMSO to prepare a 20 mM stock. Compounds were stored in −20° C. and protected from light. […] Saracatinib was used as a positive control for the SRC assay, and FRAX597 was used as a positive control for the PAK1 assay. For the positive controls, a 3-fold serial dilution was made to achieve a total of 10 concentrations. 10 μL 1× Kinase buffer was used as the negative control.
First, 250 nL of the compounds at each dilution were transferred into wells of a 384-well plate. […] Then, 10 μL of enzyme mix was added to the 384-well plate, and the enzymes and compounds were pre-incubated at room temperature for 10 minutes. […] Then, 15 μL of substrate mix was added to a 384-well plate and reacted at room temperature for 30 min and 60 min. The reaction was stopped by adding 30 μL of the stop buffer, and the conversion rate was read using a Caliper EZ Reader.
(§2) Percent inhibition is calculated according to the following equation: […]
(§3) wherein “Conversion %_sample” is the conversion percentage value of the sample; “Conversion %_min” is the average conversion percentage value of the negative control; and “Conversion %_max” is the average conversion percentage value of the positive control.
(§4) The dose-response curve was fitted using GraphPad Prism software (version 5, […]), and the IC50 values for each compounds were calculated by log(inhibitor) vs. response using a variable slope program with the following formula:
(§5) Y=Bottom+(Top-Bottom)/(1+10^((Log IC50−X)*HillSlope))

Another assay deals with PAK1 (Homo sapiens, UniProt Q13153). The assay is described as follows: In vitro kinase assay, PAK1 (Caliper EZ Reader conversion). Set-up: purchased Carna Biosciences. The class given is biochemical. How it is done:
as §1
Test compounds were dissolved in 100% DMSO to prepare a 20 mM stock. Compounds were stored in −20° C. and protected from light. A 100×solution of the compounds were prepared, from which 4-fold serial dilutions was made to achieve a total of 6 concentrations. Saracatinib was used as a positive control for the SRC assay, and FRAX597 was used as a positive control for the PAK1 assay. For the positive controls, a 3-fold serial dilution was made to achieve a total of 10 concentrations. 10 μL 1× Kinase buffer was used as the negative control.
First, 250 nL of the compounds at each dilution were transferred into wells of a 384-well plate. The PAK1 and SRC kinases were diluted to a 2.5×final concentration with 1×Kinase buffer. Then, 10 μL of enzyme mix was added to the 384-well plate, and the enzymes and compounds were pre-incubated at room temperature for 10 minutes. […] Then, 15 μL of substrate mix was added to a 384-well plate and reacted at room temperature for 30 min and 60 min. The reaction was stopped by adding 30 μL of the stop buffer, and the conversion rate was read using a Caliper EZ Reader.
as §2, §3, §4, §5

T1 sequence (P12931 whole entry): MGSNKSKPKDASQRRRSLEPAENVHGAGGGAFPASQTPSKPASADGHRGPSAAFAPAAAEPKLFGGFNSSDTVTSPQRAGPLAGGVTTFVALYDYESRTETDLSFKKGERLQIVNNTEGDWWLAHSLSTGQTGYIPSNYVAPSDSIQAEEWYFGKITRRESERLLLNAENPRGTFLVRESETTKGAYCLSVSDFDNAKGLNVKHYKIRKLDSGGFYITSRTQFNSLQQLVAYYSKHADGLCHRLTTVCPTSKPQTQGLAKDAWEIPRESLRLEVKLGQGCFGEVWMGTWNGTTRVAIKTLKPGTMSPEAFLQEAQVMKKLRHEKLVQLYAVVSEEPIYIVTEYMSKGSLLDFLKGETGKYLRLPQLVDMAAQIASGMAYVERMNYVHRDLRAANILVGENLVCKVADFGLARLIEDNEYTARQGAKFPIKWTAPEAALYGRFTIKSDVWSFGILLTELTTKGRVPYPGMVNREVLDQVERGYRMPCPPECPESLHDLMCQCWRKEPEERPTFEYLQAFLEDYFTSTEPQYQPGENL
PAK1, sequence (Q13153 whole entry): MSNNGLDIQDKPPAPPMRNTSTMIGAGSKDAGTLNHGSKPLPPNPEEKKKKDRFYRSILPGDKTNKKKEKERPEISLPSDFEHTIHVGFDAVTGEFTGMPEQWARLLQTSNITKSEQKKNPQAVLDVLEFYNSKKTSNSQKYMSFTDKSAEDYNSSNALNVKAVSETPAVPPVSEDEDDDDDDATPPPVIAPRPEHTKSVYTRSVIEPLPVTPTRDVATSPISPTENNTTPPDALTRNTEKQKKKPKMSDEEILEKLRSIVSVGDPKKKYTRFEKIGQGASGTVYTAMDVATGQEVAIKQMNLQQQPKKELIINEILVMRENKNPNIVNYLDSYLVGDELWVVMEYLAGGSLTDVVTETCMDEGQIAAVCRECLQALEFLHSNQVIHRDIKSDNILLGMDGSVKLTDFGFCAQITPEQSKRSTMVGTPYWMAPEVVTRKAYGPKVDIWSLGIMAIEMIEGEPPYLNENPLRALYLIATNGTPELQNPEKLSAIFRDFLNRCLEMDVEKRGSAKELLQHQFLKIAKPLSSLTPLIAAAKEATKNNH

With `Fc1cc(Nc2ncc3c(n2)N2CCN=C2C(c2ccc(Cl)cc2Cl)=C3)ccc1N1CCNCC1` [Compound 1, 6-(2,4-dichlorophenyl)-N-(3-fluoro-4-(piperazin-1-yl)phenyl)-8,9-dihydroimidazo[1′,2′:1,6]pyrido[2,3-d]pyrimidin-2-amine], the IC50 at SRC (read-out: SRC IC50) and on PAK1 was under 0.1 µM throughout.

As for `CCN1CCN(c2ccc(Nc3ncc4c(n3)N3CCN=C3C(c3ccc(Cl)cc3Cl)=C4)cc2F)CC1` [Compound 3, 6-(2,4-dichlorophenyl)-N-(4-(4-ethylpiperazin-1-yl)-3-fluorophenyl)-8,9-dihydroimidazo[1′,2′:1,6]pyrido[2,3-d]pyrimidin-2-amine], the IC50 on SRC (read-out: SRC IC50) was under 0.1 µM; against PAK1, 0.1 to 10 µM.

With `CCNc1ncc2c(n1)N1CCN=C1C(c1ccc(Cl)cc1Cl)=C2` [Compound 4, 6-(2,4-dichlorophenyl)-N-ethyl-8,9-dihydroimidazo[1′,2′:1,6]pyrido[2,3-d]pyrimidin-2-amine], the IC50 at SRC (read-out: SRC IC50) and at PAK1 was over 10 µM in each case.

Take `Clc1ccc(C2=Cc3cnc(NC4CCOCC4)nc3N3CCN=C23)c(Cl)c1` [Compound 5, 6-(2,4-dichlorophenyl)-N-(tetrahydro-2H-pyran-4-yl)-8,9-dihydroimidazo[1′,2′:1,6]pyrido[2,3-d]pyrimidin-2-amine]: the half-maximal inhibitory concentration (IC50) at SRC (read-out: SRC IC50) and at PAK1 was over 10 µM in each case.

`Fc1ccccc1Nc1ncc2c(n1)N1CCN=C1C(c1ccc(Cl)cc1Cl)=C2` [Compound 6, 6-(2,4-dichlorophenyl)-N-(2-fluorophenyl)-8,9-dihydroimidazo[1′,2′:1,6]pyrido[2,3-d]pyrimidin-2-amine]: the IC50 on SRC (read-out: SRC IC50) is 0.1 to 10 µM; against PAK1, over 10 µM.

As to `Fc1cc(N2CCNCC2)ccc1Nc1ncc2c(n1)N1CCN=C1C(c1ccc(Cl)cc1Cl)=C2` [Compound 7, 6-(2,4-dichlorophenyl)-N-(2-fluoro-4-(piperazin-1-yl)phenyl)-8,9-dihydroimidazo[1′,2′:1,6]pyrido[2,3-d]pyrimidin-2-amine], the IC50 is under 0.1 µM at SRC and over 10 µM against PAK1.

As for `Fc1cc(Nc2ncc3c(n2)N2CCN=C2C(c2ccccc2Cl)=C3)ccc1N1CCNCC1` [Compound 11, 6-(2-chlorophenyl)-N-(3-fluoro-4-(piperazin-1-yl)phenyl)-8,9-dihydroimidazo[1′,2′:1,6]pyrido[2,3-d]pyrimidin-2-amine], the IC50 is under 0.1 µM at SRC (read-out: SRC IC50) and 0.1 to 10 µM on PAK1.

In the case of `Fc1cc(N2CCNCC2)ccc1Nc1ncc2c(n1)N1CCN=C1C(c1ccccc1Cl)=C2` [Compound 12, 6-(2-chlorophenyl)-N-(2-fluoro-4-(piperazin-1-yl)phenyl)-8,9-dihydroimidazo[1′,2′:1,6]pyrido[2,3-d]pyrimidin-2-amine], the IC50 on SRC (read-out: SRC IC50) is under 0.1 µM; on PAK1, 0.1 to 10 µM.

`OCc1cccc(Nc2ncc3c(n2)N2CCN=C2C(c2ccccc2Cl)=C3)c1` [Compound 13, (3-((6-(2-chlorophenyl)-8,9-dihydroimidazo[1′,2′:1,6]pyrido[2,3-d]pyrimidin-2-yl)amino)phenyl)methanol]: the IC50 at SRC (read-out: SRC IC50) is under 0.1 µM; at PAK1, 0.1 to 10 µM.

Regarding `Cn1nccc1Nc1ncc2c(n1)N1CCN=C1C(c1ccccc1Cl)=C2` [Compound 14, 6-(2-chlorophenyl)-N-(1-methyl-1H-pyrazol-5-yl)-8,9-dihydroimidazo[1′,2′:1,6]pyrido[2,3-d]pyrimidin-2-amine], the IC50 at SRC (read-out: SRC IC50) and against PAK1 was over 10 µM throughout.

As to `Clc1ccccc1C1=Cc2cnc(Nc3cccnc3)nc2N2CCN=C12` [Compound 15, 6-(2-chlorophenyl)-N-(pyridin-3-yl)-8,9-dihydroimidazo[1′,2′:1,6]pyrido[2,3-d]pyrimidin-2-amine], the IC50 is 0.1 to 10 µM on SRC (read-out: SRC IC50) and over 10 µM at PAK1.

On to `Clc1ccccc1C1=Cc2cnc(Nc3ccncc3)nc2N2CCN=C12` [Compound 16, 6-(2-chlorophenyl)-N-(pyridin-4-yl)-8,9-dihydroimidazo[1′,2′:1,6]pyrido[2,3-d]pyrimidin-2-amine], for which the results for the 50% inhibitory concentration (IC50) on SRC (read-out: SRC IC50) and against PAK1 were 0.1 to 10 µM and over 10 µM, respectively.

Turning to `COc1cccc(Nc2ncc3c(n2)N2CCN=C2C(c2ccccc2Cl)=C3)c1` [Compound 17, 6-(2-chlorophenyl)-N-(3-methoxyphenyl)-8,9-dihydroimidazo[1′,2′:1,6]pyrido[2,3-d]pyrimidin-2-amine], the IC50 on SRC (read-out: SRC IC50) was under 0.1 µM; at PAK1, over 10 µM.

`CSc1cccc(Nc2ncc3c(n2)N2CCN=C2C(c2ccccc2Cl)=C3)c1` [Compound 18, 6-(2-chlorophenyl)-N-(3-(methylthio)phenyl)-8,9-dihydroimidazo[1′,2′:1,6]pyrido[2,3-d]pyrimidin-2-amine]: the IC50 is under 0.1 µM at SRC (read-out: SRC IC50) and over 10 µM against PAK1.

For the compound `Fc1ccc(Nc2ncc3c(n2)N2CCN=C2C(c2ccccc2Cl)=C3)cc1` [Compound 19, 6-(2-chlorophenyl)-N-(4-fluorophenyl)-8,9-dihydroimidazo[1′,2′:1,6]pyrido[2,3-d]pyrimidin-2-amine], the figures for the 50% inhibitory concentration (IC50) on SRC (read-out: SRC IC50) and against PAK1 were under 0.1 µM and over 10 µM, respectively.

On to `Cc1ccc(Nc2ncc3c(n2)N2CCN=C2C(c2ccccc2Cl)=C3)cc1F` [Compound 20, 6-(2-chlorophenyl)-N-(3-fluoro-4-methylphenyl)-8,9-dihydroimidazo[1′,2′:1,6]pyrido[2,3-d]pyrimidin-2-amine], for which the results for the IC50 at SRC (read-out: SRC IC50) and against PAK1 were under 0.1 µM and over 10 µM, respectively.

On to `Clc1ccccc1C1=Cc2cnc(NC3COC3)nc2N2CCN=C12` [Compound 21, 6-(2-chlorophenyl)-N-(oxetan-3-yl)-8,9-dihydroimidazo[1′,2′:1,6]pyrido[2,3-d]pyrimidin-2-amine], for which the IC50 on SRC (read-out: SRC IC50) and on PAK1 was over 10 µM each time.

On to `CN(C)CCOc1ccc(Nc2ncc3c(n2)N2CCN=C2C(c2ccccc2Cl)=C3)cc1` [Compound 22, 6-(2-chlorophenyl)-N-(4-(2-(dimethylamino)ethoxy)phenyl)-8,9-dihydroimidazo[1′,2′:1,6]pyrido[2,3-d]pyrimidin-2-amine], for which the IC50 on SRC (read-out: SRC IC50) is under 0.1 µM; against PAK1, 0.1 to 10 µM.

`Cc1ccccc1C1=Cc2cnc(Nc3ccc(N4CCNCC4)cc3F)nc2N2CCN=C12` [Compound 30, N-(2-fluoro-4-(piperazin-1-yl)phenyl)-6-(o-tolyl)-8,9-dihydroimidazo[1′,2′:1,6]pyrido[2,3-d]pyrimidin-2-amine] had an IC50 on PAK1 of over 10 µM.

For `Fc1cc(N2CCNCC2)ccc1Nc1ncc2c(n1)N1CCN=C1C(c1ccccn1)=C2` [Compound 32, N-(2-fluoro-4-(piperazin-1-yl)phenyl)-6-(pyridin-2-yl)-8,9-dihydroimidazo[1′,2′:1,6]pyrido[2,3-d]pyrimidin-2-amine], the IC50 against PAK1 is over 10 µM.

Regarding `Fc1cc(N2CCNCC2)ccc1Nc1ncc2c(n1)N1CCN=C1C(c1cscn1)=C2` [Compound 33, N-(2-fluoro-4-(piperazin-1-yl)phenyl)-6-(thiazol-4-yl)-8,9-dihydroimidazo[1′,2′:1,6]pyrido[2,3-d]pyrimidin-2-amine], the IC50 against PAK1 was 0.1 to 10 µM.

Regarding `Fc1cc(N2CCNCC2)ccc1Nc1ncc2c(n1)N1CCN=C1C(c1ccncc1)=C2` [Compound 34, N-(2-fluoro-4-(piperazin-1-yl)phenyl)-6-(pyridin-4-yl)-8,9-dihydroimidazo[1′,2′:1,6]pyrido[2,3-d]pyrimidin-2-amine], the IC50 against PAK1 is over 10 µM.

On PAK1, `COc1nc(N2CCNCC2)ccc1Nc1ncc2c(n1)N1CCN=C1C(c1ccccc1)=C2` [Compound 37, N-(2-methoxy-6-(piperazin-1-yl)pyridin-3-yl)-6-phenyl-8,9-dihydroimidazo[1′,2′:1,6]pyrido[2,3-d]pyrimidin-2-amine] yielded an IC50 of over 10 µM.

For `COc1nc(N2CCNCC2)ccc1Nc1ncc2c(n1)N1CCN=C1C(c1ccc(C)cc1)=C2` [Compound 38, N-(2-methoxy-6-(piperazin-1-yl)pyridin-3-yl)-6-(p-tolyl)-8,9-dihydroimidazo[1′,2′:1,6]pyrido[2,3-d]pyrimidin-2-amine], the half-maximal inhibitory concentration (IC50) on PAK1 is over 10 µM.

`Clc1ccccc1C1=Cc2cnc(Nc3ccc(N4CCOCC4)cc3)nc2N2CCN=C12` [Compound 89, 6-(2-chlorophenyl)-N-(4-morpholinophenyl)-8,9-dihydroimidazo[1′,2′:1,6]pyrido[2,3-d]pyrimidin-2-amine] displayed an IC50 against PAK1 of 0.1 to 10 µM.
